According to US10335380B2, “Compounds suitable for the treatment of myeloproliferative neoplasms as well as methods for the diagnosis/prognosis of myeloproliferative neoplasms” (CNIC Fundacion Centro Nacional De investigaciones …, priority 2013, dated 2019):

What was measured:
[1] = tested on: mice transplanted with MPN BM cells (JAK2-V617F); experiment: In vivo pharmacological treatments of mice transplanted with MPN (Mx1-cre;JAK2-V617F) BM cells; design: species or system mouse
Description: In Mx1-cre; JAK2-V617F double-transgenic mice, expression of the human JAK2-V617F mutation is driven by the endogenous Jak2 promoter and can be conditionally expressed in haematopoietic cells upon Myxovirus resistance-1 (Mx1)-driven Cre recombinase activation by polyinosine-polycytosine (plpC). PlpC-induced transgenic mice and wild-type mice transplanted with BM cells from these mice develop progressive symptoms of PV19,20.
Age-matched, female wild-type C57BL/6J or Nes-gfp mice were used as recipients in bone marrow (BM) transplantation assays and for in vivo pharmacological treatments. […] Vehicle (saline solution) daily injections were performed in the same way. Unless indicated, treatment was initiated 4 weeks posttransplant, when animals evidenced peripheral blood signs of MPN. Mice were randomly distributed prior to treatment initiation, and disease development was monitored over time in peripheral blood samples, using an automated blood counter. […] The neuroprotective drug 4-methylcatechol (10 μg kg-1, i.p.) was injected once daily. The JAK inhibitor INCB018424 (S-Ruxilitinib, Abmole Bioscience) was administered by oral gavage (30 mg kg-1, twice per day separated 10-12 hours) in 0.5% hydroxypropylmethylcellulose (Sigma) after solubilisation in DMSO. The IL-1 receptor antagonist (Kineret, Sobi, Stockholm, Sweden) was administered by subcutaneous osmotic pumps (Alzet) infusing a continuous dosing of 40 mg kg-1 per day. Mice were sacrificed at different time points and subjected to complete necropsy; BM and spleen were analysed by histology and flow cytometry; femora and skull were used for immunostainings, and haematopoietic and stromal cells were additionally used for functional assays ex vivo.
BM cell extraction, flow cytometry and fluorescence-activated cell sorting For haematopoietic cell recovery, bones were crushed in a mortar, filtered through a 40-μm mesh to obtain single cell suspensions, and depleted of red blood cells by lysis in 0.15 M NH4Cl for 10 min at 4° C. Spleen samples were homogenised and filtered prior to lysis; blood samples were directly lysed. Cells (1-2×10^6 cells per sample) were incubated with the appropriate dilution (2-5 μg ml-1) of fluorescent antibody conjugates and 4′,6-diamidino-2-phenylindole (DAPI) for dead cell exclusion, and analysed on LSRFortessa flow cytometer (BD Biosciences, Franklin Lakes, N.J.) equipped with FACSDiva Software (BD Biosciences). […] Biotinylated antibodies were detected with fluorochrome-conjugated streptavidin (BD Biosciences). Phenotypic populations of HSC were defined as long-term haematopoietic stem cells (HSCs) (lin− Sca1+c-kit+ (LSK) CD34− Flt3−), short-term HSCs (LSK CD34+ Flt3−) and multipotent progenitors (MPP) (LSK CD34+ Flt3+).
Cells were filtered through a 40-μm mesh and erythrocytes were lysed as previously described. The resulting bone marrow-enriched cell suspensions were pelleted, washed and resuspended in PBS buffer containing 2% foetal calf serum (FCS) for further analyses. […] BM stromal CD45− CD31− Ter119− cells were further purified according to GFP fluorescence using a FACS Aria cell sorter (BD Bioscience). For the determination of apoptotic cells, samples were washed with PBS after surface antibody staining and subsequently stained with Annexin V-Pacific Blue and SYTOX AADvanced (Invitrogen, Life Technologies, Paisley, UK). For functional assays, cells were enriched by immunomagnetic depletion using biotinylated CD45 and Ter119. For immunophenotypic characterisation, total BM samples were studied by flow cytometry using the following additional antibodies: CD63 (NVG-2), CD105 (MJ7/18), CD140a (APA5), Vcam, CD51 (RMV-7), all from Biolegend; and CD90.2 from BD Biosciences.
Immunofluorescence staining of cryostat sections was performed. For whole mount staining of the calvaria, all incubation times were extended. The antibodies used were TH (Rabbit pAb, Millipore) and GFAP (Rabbit pAb, Dako).

β1 receptors = β1 receptors (Homo sapiens, UniProt P08588); details: read-out: Ki for β1 receptors; cited from earlier work
Sequence of β1 receptors (P08588 whole entry): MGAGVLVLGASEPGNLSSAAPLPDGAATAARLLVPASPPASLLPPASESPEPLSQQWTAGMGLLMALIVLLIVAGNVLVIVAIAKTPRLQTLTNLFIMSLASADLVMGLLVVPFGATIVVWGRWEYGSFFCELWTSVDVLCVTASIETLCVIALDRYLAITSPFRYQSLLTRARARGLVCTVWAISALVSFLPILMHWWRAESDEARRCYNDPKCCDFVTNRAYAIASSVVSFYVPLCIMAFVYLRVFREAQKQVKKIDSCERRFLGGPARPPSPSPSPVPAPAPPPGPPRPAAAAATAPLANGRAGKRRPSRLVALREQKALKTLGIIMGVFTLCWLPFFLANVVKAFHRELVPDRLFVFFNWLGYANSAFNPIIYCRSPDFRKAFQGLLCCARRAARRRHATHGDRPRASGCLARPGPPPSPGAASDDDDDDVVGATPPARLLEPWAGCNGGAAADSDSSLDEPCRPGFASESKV

[2] = advanced MPN, BRL37344 started upon thrombocytosis
[3] = symptomatic MPN mice, chronic BRL37344 2 mg kg-1 i.p. twice a day

C[C@H](Cc1ccc(OCC(=O)O)cc1)NC[C@H](O)c1cccc(Cl)c1 [BRL37344, [4-[(2R)-2-[[(2R)-2-(3-clorophenyl)-2-hydroxyethyl]amino]propyl]phenoxy]acetic acid]
incipient MPN signs (haematological parameters) ([1]; 8 weeks after transplantation, treatment for the last 4 weeks): improved
IL-1β in BM supernatant ([1]; BRL37344, 4 weeks, FIG. 4e): reduced
BM Nes-GFP+ cell number ([1]; BRL37344, 8 weeks, FIG. 4f): restored
Cxcl12 levels in BM ([1]; BRL37344, 16 weeks, FIG. 4g): increased
mutant haematopoietic progenitors (LSK cells, LT- and ST-HSCs) ([1]; BRL37344 administered at thrombocytotic stage, FIG. 4k): efficiently decreased
MPN progression ([1]; BRL37344 or Mirabegron 2 mg kg-1 i.p. twice a day): blocks
neuroglial gene expression (Mbp, Mobp, Pleckhb1 mRNA) in BM Nes-GFP+ cells from MPN mice ([1]; BRL37344 over 8 weeks, starting 4 weeks after transplantation): do not express
Schwann cell program activation in BM nestin+ cells ([1]; BRL37344 over 8 weeks, starting 4 weeks after transplantation, FIG. 11c): blocked
BM Schwann cells (Gfap immunostaining) [1, 2]: rescued
BM interleukin-1β [1, 2]: reduced
erythrocytosis [1, 2]: reduced
fibrosis and osteosclerosis [1, 2]: reduced
neutrophilia [1, 2]: reduced
thrombocytosis [1, 2]: reduced
BM fibrosis: excessive bone and fibroblastic tissue (reticulin, Van Gieson) ([1]; chronic BRL37344 versus vehicle-injected mice with severe fibrosis): virtually devoid of excessive bone and fibroblastic tissue
mutant haematopoietic progenitor expansion ([1]; early treatment, 4 weeks, BRL37344 2 mg kg-1 twice a day, 4-methylcatechol 10 μg kg-1 once daily): prevented
mutant haematopoietic progenitors ([1]; long-term BRL37344 treatment, 16 weeks): efficiently decreased
JAK2-V617F+ HSC expansion ([1]; long-term BRL37344 treatment, 16 weeks, 2 mg kg-1 twice a day i.p.): inhibits
MPN-associated thrombocytosis [1, 3]: prevented
red blood cell reduction [1, 3]: delayed
MPN-associated neutrophilia ([1]; symptomatic MPN mice, treatment started 4 weeks after transplantation, BRL37344 2 mg kg-1 i.p. twice a day, 4-methylcatechol 10 μg kg-1 i.p. once daily): prevented
Ki (β1 receptors): 1750 nM
